Assay results reported in patent US20180319810A1, “SUBSTITUTED BRIDGED UREA ANALOGS AS SIRTUIN MODULATORS” (GlaxoSmithKline Intellectual Property (No.2) Limited, priority 2014, published 2018).

Molecular target: T1, SIRT1 (Homo sapiens, UniProt Q96EB6)
T1 sequence (Q96EB6 1-747): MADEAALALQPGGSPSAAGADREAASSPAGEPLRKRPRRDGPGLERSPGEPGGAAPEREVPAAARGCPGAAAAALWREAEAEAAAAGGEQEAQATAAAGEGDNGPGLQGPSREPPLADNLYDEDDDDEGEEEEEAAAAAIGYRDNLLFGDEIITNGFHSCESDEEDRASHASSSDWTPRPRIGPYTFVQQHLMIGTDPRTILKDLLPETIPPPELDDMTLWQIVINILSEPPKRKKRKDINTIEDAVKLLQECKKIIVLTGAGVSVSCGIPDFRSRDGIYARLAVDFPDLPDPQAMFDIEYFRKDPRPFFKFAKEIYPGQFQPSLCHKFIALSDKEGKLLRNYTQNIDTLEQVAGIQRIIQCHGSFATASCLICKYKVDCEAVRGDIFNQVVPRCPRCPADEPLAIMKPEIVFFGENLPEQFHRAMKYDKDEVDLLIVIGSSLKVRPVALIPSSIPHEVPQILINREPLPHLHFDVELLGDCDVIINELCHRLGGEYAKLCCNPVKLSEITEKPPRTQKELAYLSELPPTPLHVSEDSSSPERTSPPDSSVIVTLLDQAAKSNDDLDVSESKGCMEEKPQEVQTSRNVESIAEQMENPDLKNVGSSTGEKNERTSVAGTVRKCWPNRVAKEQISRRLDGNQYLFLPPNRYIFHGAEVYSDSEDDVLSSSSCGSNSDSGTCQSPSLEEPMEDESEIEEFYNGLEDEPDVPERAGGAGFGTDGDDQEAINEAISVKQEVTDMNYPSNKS
Assay: Trp mass spectrometry assay of SIRT1 activation
Assay type: biochemical
Details: Trp peptide Ac-R-H-K-K(Ac)-W-NH2 0.5 μM, 120 μM βNAD+, 10 nM SIRT1, 25 min, 25° C.

Row | SMILES | TRP Activity (EC1.5, concentration of compound required to increase SIRT1 activity by 50% over control) | TRP MAX RESP (percent maximum fold activation relative to control)
1 | O=C(Nc1ccc(OC[C@@H](O)CO)cn1)N1c2nc(-c3cccc(C(F)(F)F)c3)ncc2N2CCC[C@H]1C2 [Example 98, (9S)—N-(5-((S)-2,3-dihydroxypropoxy)pyridin-2-yl)-2-(3-(trifluoromethyl)phenyl)-8,9-dihydro-6H-5,9-methanopyrimido[4,5-b][1,4]diazocine-10(7H)-carboxamide] | A (EC1.5<1 μM) | A (Fold activation ≥150%)
2 | O=C(Nc1nccc(OC[C@H](O)CO)n1)N1c2nc(-c3cccc(C(F)(F)F)c3)ncc2N2CCC[C@H]1C2 [Example 100, (9S)—N-(4-((R)-2,3-dihydroxypropoxy)pyrimidin-2-yl)-2-(3-(trifluoromethyl)phenyl)-8,9-dihydro-6H-5,9-methanopyrimido[4,5-b][1,4]diazocine-10(7H)-carboxamide] | A (EC1.5<1 μM) | A (Fold activation ≥150%)
3 | O=C(Nc1ccc(OC[C@@H](O)CO)nc1)N1c2nc(-c3cccc(C(F)(F)F)c3)ncc2N2CCC[C@H]1C2 [Example 101, (9S)—N-(6-((S)-2,3-dihydroxypropoxy)pyridin-3-yl)-2-(3-(trifluoromethyl)phenyl)-8,9-dihydro-6H-5,9-methanopyrimido[4,5-b][1,4]diazocine-10(7H)-carboxamide] | A (EC1.5<1 μM) | A (Fold activation ≥150%)
4 | O=C(Nc1cnc(OC[C@@H](O)CO)nc1)N1c2nc(-c3cccc(C(F)(F)F)c3)ncc2N2CCC[C@H]1C2 [Example 102, (9S)—N-(2-((S)-2,3-dihydroxypropoxy)pyrimidin-5-yl)-2-(3-(trifluoromethyl)phenyl)-8,9-dihydro-6H-5,9-methanopyrimido[4,5-b][1,4]diazocine-10(7H)-carboxamide] | A (EC1.5<1 μM) | A (Fold activation ≥150%)
5 | O=C(Nc1nccc(OC[C@@H](O)CO)n1)N1c2nc(-c3cccc(C(F)(F)F)c3)ncc2N2CCC[C@H]1C2 [Example 103, (9S)—N-(4-((S)-2,3-dihydroxypropoxy)pyrimidin-2-yl)-2-(3-(trifluoromethyl)phenyl)-8,9-dihydro-6H-5,9-methanopyrimido[4,5-b][1,4]diazocine-10(7H)-carboxamide] | B (EC1.5 1-25 μM) | A (Fold activation ≥150%)
6 | O=C(Nc1cnc(OC[C@H](O)CO)nc1)N1c2nc(-c3cccc(C(F)(F)F)c3)ncc2N2CCC[C@H]1C2 [Example 104, (9S)—N-(2-((R)-2,3-dihydroxypropoxy)pyrimidin-5-yl)-2-(3-(trifluoromethyl)phenyl)-8,9-dihydro-6H-5,9-methanopyrimido[4,5-b][1,4]diazocine-10(7H)-carboxamide] | A (EC1.5<1 μM) | A (Fold activation ≥150%)
7 | O=C(Nc1ncc(OC[C@H](O)CO)cn1)N1c2nc(-c3cccc(C(F)(F)F)c3)ncc2N2CCC[C@H]1C2 [Example 105, (9S)—N-(5-((R)-2,3-dihydroxypropoxy)pyrimidin-2-yl)-2-(3-(trifluoromethyl)phenyl)-8,9-dihydro-6H-5,9-methanopyrimido[4,5-b][1,4]diazocine-10(7H)-carboxamide] | A (EC1.5<1 μM) | A (Fold activation ≥150%)
8 | Cc1nc(-c2cccc(C(F)(F)F)c2)nc2c1N1CCC[C@@H](C1)N2C(=O)Nc1cnc(OC[C@H](O)CO)nc1 [Example 106, (9S)—N-(2-((R)-2,3-dihydroxypropoxy)pyrimidin-5-yl)-4-methyl-2-(3-(trifluoromethyl)phenyl)-8,9-dihydro-6H-5,9-methanopyrimido[4,5-b][1,4]diazocine-10(7H)-carboxamide] | A (EC1.5<1 μM) | A (Fold activation ≥150%)
9 | Cc1nc(-c2cccc(C(F)(F)F)c2)nc2c1N1CCC[C@@H](C1)N2C(=O)Nc1cncc(OC[C@H](O)CO)c1 [Example 107, (9S)—N-(5-((R)-2,3-dihydroxypropoxy)pyridin-3-yl)-4-methyl-2-(3-(trifluoromethyl)phenyl)-8,9-dihydro-6H-5,9-methanopyrimido[4,5-b][1,4]diazocine-10(7H)-carboxamide] | A (EC1.5<1 μM) | A (Fold activation ≥150%)
10 | O=C(Nc1cnnc(OC[C@@H](O)CO)c1)N1c2nc(-c3cccc(C(F)(F)F)c3)ncc2N2CCC[C@H]1C2 [Example 108, (9S)—N-(6-((S)-2,3-dihydroxypropoxy)pyridazin-4-yl)-2-(3-(trifluoromethyl)phenyl)-8,9-dihydro-6H-5,9-methanopyrimido[4,5-b][1,4]diazocine-10(7H)-carboxamide] | A (EC1.5<1 μM) | A (Fold activation ≥150%)
11 | Cc1nc(-c2cccc(C(F)(F)F)c2)nc2c1N1CCC[C@@H](C1)N2C(=O)Nc1cncc(OC[C@@H](O)CO)c1 [Example 109, (9S)—N-(5-((S)-2,3-dihydroxypropoxy)pyridin-3-yl)-4-methyl-2-(3-(trifluoromethyl)phenyl)-8,9-dihydro-6H-5,9-methanopyrimido[4,5-b][1,4]diazocine-10(7H)-carboxamide] | A (EC1.5<1 μM) | A (Fold activation ≥150%)
12 | O=C(Nc1cnnc(OC[C@H](O)CO)c1)N1c2nc(-c3cccc(C(F)(F)F)c3)ncc2N2CCC[C@H]1C2 [Example 110, (9S)—N-(6-((R)-2,3-dihydroxypropoxy)pyridazin-4-yl)-2-(3-(trifluoromethyl)phenyl)-8,9-dihydro-6H-5,9-methanopyrimido[4,5-b][1,4]diazocine-10(7H)-carboxamide] | A (EC1.5<1 μM) | A (Fold activation ≥150%)
13 | Cc1nc(-c2cccc(C(F)(F)F)c2)nc2c1N1CCC[C@@H](C1)N2C(=O)Nc1nccc(OC[C@H](O)CO)n1 [Example 111, (9S)—N-(4-((R)-2,3-dihydroxypropoxy)pyrimidin-2-yl)-4-methyl-2-(3-(trifluoromethyl)phenyl)-8,9-dihydro-6H-5,9-methanopyrimido[4,5-b][1,4]diazocine-10(7H)-carboxamide] | A (EC1.5<1 μM) | A (Fold activation ≥150%)
14 | Cc1nc(-c2cccc(C(F)(F)F)c2)nc2c1N1CCC[C@@H](C1)N2C(=O)Nc1nccc(OC[C@@H](O)CO)n1 [Example 112, (9S)—N-(4-((S)-2,3-dihydroxypropoxy)pyrimidin-2-yl)-4-methyl-2-(3-(trifluoromethyl)phenyl)-8,9-dihydro-6H-5,9-methanopyrimido[4,5-b][1,4]diazocine-10(7H)-carboxamide] | A (EC1.5<1 μM) | A (Fold activation ≥150%)
15 | Cc1nc(-c2cccc(C(F)(F)F)c2)nc2c1N1CCC[C@@H](C1)N2C(=O)Nc1ccc(OC[C@H](O)CO)cn1 [Example 113, (9S)—N-(5-((R)-2,3-dihydroxypropoxy)pyridin-2-yl)-4-methyl-2-(3-(trifluoromethyl)phenyl)-8,9-dihydro-6H-5,9-methanopyrimido[4,5-b][1,4]diazocine-10(7H)-carboxamide] | A (EC1.5<1 μM) | A (Fold activation ≥150%)
16 | Cc1cc(-c2ncc3c(n2)N(C(=O)Nc2cccnc2)[C@H]2CCCN3C2)ccn1 [Example 114, (9S)-2-(2-methylpyridin-4-yl)-N-(pyridin-3-yl)-8,9-dihydro-6H-5,9-methanopyrimido[4,5-b][1,4]diazocine-10(7H)-carboxamide] | B (EC1.5 1-25 μM) | A (Fold activation ≥150%)
17 | Cc1ncc(-c2ccnc(NC(=O)N3c4nc(C(=O)N[C@H](C)C(F)(F)F)ncc4N4CC[C@H]3C4)c2)o1 [Example 115, (8S)—N9-(4-(2-methyloxazol-5-yl)pyridin-2-yl)-N2-((R)-1,1,1-trifluoropropan-2-yl)-7,8-dihydro-5,8-methanopyrimido[4,5-b][1,4]diazepine-2,9(6H)-dicarboxamide] | B (EC1.5 1-25 μM) | A (Fold activation ≥150%)
